Patent publication US20250074902A1, “FUSED BICYCLIC HETEROARYL AMIDE COMPOUND AS PROTEIN AGGREGATION INHIBITOR” (SHANGHAI JINGXIN BIOMEDICAL CO., LTD., priority 2021, published 2025)

What was measured:
[1] = Determination of half-life in C57BL/6 mice; type: in vivo; conditions: mouse, 2 mg/kg; male C57BL/6 mice, intravenous, 2 mpk, plasma
Experimental: C57BL/6 mice (male) were selected, and the compound of the present invention was intravenously administered at a dose of 2 mpk, About 0.03 mL of whole blood was collected from the mouse orbital venous plexus at 0 h before administration, 0.0833, 0.25, 0.5, 1, 2, 4, 6, 8 and 24 h after administration. The blood was placed in a centrifuge tube containing EDTA-K2 anticoagulant, and placed in crushed ice after collection. Centrifuge at 2000 g and 4° C. for 10 min within 0.5 hours, and 10 μL of plasma was quantitatively divided and placed in another clean centrifuge tube, placed in a −20° C. refrigerator, and the blood drug concentration was determined by LC-MS/MS method.

[2] = Determination of brain/plasma ratio; type: in vivo; conditions: mouse, male C57BL/6 mice, oral 10 mg/kg, ratio of average drug concentration in brain tissue to plasma
Experimental: Male C57BL/6 mice were used as research subjects, and brain perfusion technology was used to investigate the pharmacokinetic characteristics of the compound of the present invention transported through the blood-brain barrier, and the drug concentrations in the blood and brain tissue samples of mice after 0.25 h, 1 h, 4 h and 8 h were detected, and the ratio of the average drug concentrations in brain tissue and plasma was calculated.
Oral administration solution (1.000 mg·ml^−1) of the compound of the present invention was prepared:
Weigh 3.116 mg of the compound and place it in an EP tube, then add DMS 0.156 mL, Solutol 0.312 mL and ultrapure water 2.648 mL (the volume ratio of the three is 5:10:85, v:v:v), vortex ultrasound to fully dissolve it, and the final actual concentration is 1.000 mg·mL-1 of the clear administration solution.
C57BL/6 mice (male), purchased from Sibeifu (Beijing) Biotechnology Co., Ltd., experimental animal production license number: SCXK (Beijing) 2019-0010.
Fasting: Overnight fasting, no water withdrawal, feed provided 4 hours after medication.
Select qualified healthy C57BL/6 mice, 3 per group. After oral administration (10 mg/kg), about 150 μL of whole blood was collected from the orbital venous plexus of mice at 0.25 h, 1 h, 4 h and 8 h after medication and placed in a centrifuge tube containing EDTA-K2 anticoagulant. After administration, the mice were anesthetized about 1 minute before the scheduled time point, and brain perfusion was performed at 0.25 h, 1 h, 4 h and 8 h after administration. After perfusion, the mouse brain tissue samples were dissected with ophthalmic scissors and ophthalmic forceps, and the remaining blood on the tissue surface was immediately rinsed with ultrapure water within 5 min, wiped dry, weighed, and 4 times the volume of acetonitrile-water solution (10:90, v:v) was added and homogenized, and then the homogenate was placed in a −20° C. refrigerator for testing. The collected samples were placed in an ice bath during the entire experimental operation.
According to the time points specified in the above experimental protocol, about 150 μL of whole blood was collected from the orbital venous plexus of C57BL/6 mice after administration and placed in a 1.5 mL centrifuge tube containing EDTAN-K2. The collected whole blood was centrifuged at 2000 g, 4° C. for 10 min, and all plasma was divided and placed in another clean centrifuge tube, and then placed in a −20° C. refrigerator for testing.
Adjust the peristaltic pump device to ensure that it works normally, the liquid flows out smoothly and stably, and there is no air in the flow path. Anesthetize the mice after administration with a mixed anesthetic of 70% CO2 and 30% O2, After the animal is fully anesthetized, quickly open the chest cavity with surgical scissors to expose the heart. […] Turn on the peristaltic pump switch and perfuse for 2-5 minutes. The perfusion fluid is 100 U/1000 mL heparin sodium saline. After the perfusion is completed, use ophthalmic scissors and ophthalmic forceps to dissect the mouse brain tissue sample, immediately rinse the remaining blood on the tissue surface with ultrapure water within 5 minutes, wipe dry, weigh, add 4 times the volume of acetonitrile-water solution (10:90, v:v) and homogenize, and then place the homogenate in a −20° C. refrigerator for testing.
Calculate the ratio of the average drug concentration in brain tissue to that in plasma, i.e., the brain/plasma ratio.

α-synuclein = biological target: T1, α-synuclein (Homo sapiens, UniProt P37840); assay: Detection of the ability of compounds to inhibit α-synuclein self-aggregation by HPLC; type: biochemical; conditions: test compound 200 μg/mL, α-synuclein 250 μg/ml, 37° C., 9 days; HPLC peak area of α-synuclein multimers vs model group; read-out: inhibition rate (%)
T1 construct: purchased Sino Biological
Experimental: The test compound (for poorly soluble compounds, dissolve with an appropriate amount of DMSO first) and fresh α-synuclein monomers (purchased from Sino Biological) were added to pure water to a final protein concentration of 250 μg/ml, and the concentration of the test compound was 200 μg/mL, followed by incubation at 37° C. for 9 days. The peak area of α-synuclein multimers after incubation was detected by HPLC and the inhibition rate was calculated. […] Inhibition rate=(peak area of model group−peak area of example group)/peak area of model group×100%.

| Structure (SMILES) | half-life [1] [h] | Kp at 4 h [2] | inhibition at 200 µg/mL (α-synuclein) [%] |
| --- | --- | --- | --- |
| CCCCC(Cc1c[nH]c2ccccc12)NC(=O)c1cc2ccc(N3CCN(C)CC3)cc2s1 (racemic) [Example 1, N-(1-(1H-indol-3-yl)hexane-2-yl)-6-(4-methylpiperazin-1-yl)benzo[b]thiophene-2-carboxamide] | 2.21 | 1.53 | 98.3 |
| CCCCC(Cc1c[nH]c2ccccc12)NC(=O)c1cnc(N2CCN(C)CC2)s1 (stereo not drawn) [Comparative Example 1, reference compound] | 0.39 | 0.35 | – |
| CCCCC(Cc1c[nH]c2ccccc12)NC(=O)c1cc2ccc(N3CCN(C4CC4)CC3)cc2s1 (stereo not drawn) [Example 3, N-(1-(1H-indol-3-yl)hexane-2-yl)-6-(4-cyclopropylpiperazin-1-yl) benzo[b]-thiophene-2-carboxamide] | 1.46 | 0.38 | 95.3 |
| CC/C=C/C(Cc1c[nH]c2ccccc12)NC(=O)c1cc2ccc(N3CCN(C)CC3)cc2s1 (stereo not drawn) [Example 37, (E)-N-(1-(1H-indol-3-yl)-3-hexene-2-yl)-6-(4-methylpiperazin-1-yl) benzo-[b]thiophene-2-carboxamide] | – | – | 86.7 |
| CN(C)CCC(Cc1c[nH]c2ccccc12)NC(=O)c1cc2ccc(N3CCN(C)CC3)cc2s1 (stereo not drawn) [Example 38] | – | – | 78.3 |
| CCOCC(Cc1c[nH]c2ccccc12)NC(=O)c1cc2ccc(N3CCN(C)CC3)cc2s1 (stereo not drawn) [Example 39, N-(1-ethoxy-3-(1H-indol-3-yl)propane-2-yl)-6-(4-methylpiperazin-1-yl) benzo[b]-thiophene-2-carboxamide] | – | – | 92.6 |
| CC(C)/C=C/C(Cc1c[nH]c2ccccc12)NC(=O)c1cc2ccc(N3CCN(C)CC3)cc2s1 (stereo not drawn) [Example 40, (E)-N-(1-(1H-indol-3-yl)-S-methyl-3-hexene-2-yl)-6-(4-methylpiperazin-yl) benzo[b]-thiophene-2-carboxamide] | – | – | 76.8 |
| CCOCCC(Cc1c[nH]c2ccccc12)NC(=O)c1cc2ccc(N3CCN(C)CC3)cc2s1 (stereo not drawn) [Example 41, N-(4-ethoxy-1-(1H-indol-3-yl)butane-2-yl)-6-(4-methylpiperazin-1-yl) benzol[b]-thiophene-2-carboxamide] | – | – | 82.5 |
| CCCC[C@@H](Cc1c[nH]c2ccccc12)NC(=O)c1cc2ccc(N3CCN(C)CC3)cc2s1 [Example 42, (S)—N-(1-(1H-indol-3-yl)hexane-2-yl)-6-(4-methylpiperazin-1-yl) benzo[b]thiophene-2-carboxamide] | 1.17 | 2.05 | 97.2 |
| CCCC[C@H](Cc1c[nH]c2ccccc12)NC(=O)c1cc2ccc(N3CCN(C)CC3)cc2s1 [Example 43, (R)—N-(1-(1H-indol-3-yl)hexane-2-yl)-6-(4-methylpiperazin-1-yl) benzo[b]thiophene-2-carboxamide] | 1.32 | 1.7 | 98.6 |
| CCCCC(Cc1c[nH]c2ccccc12)NC(=O)c1cc2ccc(N3CCN(S(=O)(=O)C4CC4)CC3)cc2s1 (stereo not drawn) [Example 44, 6-[4-(Cyclopropanesulfonyl)piperazine-1-yl]-N-[1-(1H-indol-3-yl)hexane-2-yl]-1-benzothiophene-2-carboxamide] | – | – | 89.7 |
| CCCCC(Cc1c[nH]c2ccccc12)NC(=O)c1cc2ccc(N3CCN(S(C)(=O)=O)CC3)cc2s1 (stereo not drawn) [Example 45, N-[1-(1H-indol-3-yl)hexane-2-yl]-6-(4-methylsulfonylpiperazine-1-yl)-benzothiophene-2-carboxamide] | – | – | 82.3 |
| CCCCC(Cc1c[nH]c2ccccc12)NC(=O)c1cc2ccc(N3CCN(C)C(=O)C3)cc2s1 (stereo not drawn) [Example 46, N-[1-(1H-indol-3-yl)hexane-2-yl]-6-(4-methyl-3-oxopiperazin-1-yl)-benzothiophene-2-carboxamide] | – | – | 78.9 |
| CCCCC(Cc1c[nH]c2ccccc12)NC(=O)c1cc2ccc(N3CCN(C)CC3=O)cc2s1 (stereo not drawn) [Example 47, N-[1-(1H-indol-3-yl)hexane-2-yl]-6-(4-methyl-2-oxypiperazin-1-yl)-1-benzothiophene-2-carboxamide] | – | – | 73.5 |
| CCCCC(Cc1c[nH]c2ccccc12)NC(=O)c1cc2ccc(N3CCC(C)(O)CC3)cc2s1 (stereo not drawn) [Example 48, N-(1-(1H-indol-3-yl)hexane-2-yl)-6-(4-hydroxy-4-methylpiperidin-1-yl) benzo[b]-thiophene-2-carboxamide] | – | – | 96.5 |
| CCCCC(Cc1c[nH]c2ccccc12)NC(=O)c1cc2ccc(N3CC(C)(O)C3)cc2s1 (stereo not drawn) [Example 49, N-(1-(1H-indol-3-yl)hexane-2-yl)-6-(3-hydroxy-3-methylazetidine-1-yl) benzo[b]-thiophene-2-carboxamide] | – | – | 92.9 |
| CCCCC(Cc1c[nH]c2ccccc12)NC(=O)c1cc2ccc(N3CC4(C3)CC(C)(O)C4)cc2s1 (stereo not drawn) [Example 50, N-(1-(1H-indol-3-yl)hexane-2-yl)-6-(6-hydroxy-6-methyl-2-azaspiro [3.3]heptane-2-yl) benzo[b]thiophene-2-carboxamide] | – | – | 95.7 |
| CCCCC(Cc1c[nH]c2ccccc12)NC(=O)c1cc2ccc(N3CCC(C)(O)C3)cc2s1 (stereo not drawn) [Example 51, N-(1-(1H-indol-3-yl)hexane-2-yl)-6-(3-hydroxy-3-methylpyrrolidin-1-yl) benzo[b]-thiophene-2-carboxamide] | – | – | 90.3 |
